Measured values reported in US4699928A, “Fluoroallylamine derivatives” (Merrell Dow Pharmaceuticals Inc., priority 1986, dated 1987).

Columns and labels:
[1] = test system: heart rate response to p-tyramine; experiment: Cheese effect: potentiation of response to intravenous p-tyramine, pithed rats; type: in vivo, male Sprague-Dawley rats; conditions: for Potentiation of heart rate response to p-tyramine: 18 h, p-tyramine i.v.
Protocol: The following test procedures can be employed to assess the potential of a compound of Formula I for producing the "cheese effect": […]
Eighteen hours later the animals are anaesthetized with pentobarbitone (60 mg/kg i.p.), in some instances pithed, and in all cases set up for recording heart rate and blood pressure by standard techniques.

MAO = experiment: Inhibition of MAO ex vivo, p-tyramine as substrate; type: in vivo, male Sprague-Dawley rats; conditions: 18 h, 14C p-tyramine
Protocol: (§1) The ability of a compound of Formula I to inhibit MAO can be determined ex vivo by the following procedure:
(§2) The test compound is administered orally (p.o.) to 300-350 g male Sprague-Dawley rats (Charles River, France) and the animals are killed 18 hours after treatment. The brain, heart, liver and/or duodenum is removed and either a crude homogenate or a mitochondrial fraction, described in Example 5, Part (A), is prepared. MAO activity is determined in the homogenates using ^14 C p-tyramine, as the substrate. Table III gives the results of the testing of (Z)-2-(2',4'-dichlorophenoxy)methyl-3-fluoroallylamine according to the above described procedure. Selectivity can be determined by repeating the above-described test using either ^14 C […] (for MAO-A) or ^14 C phenethylamine (for MAO-B) as the substrate for determining the percentage inhibition.

[2] = test system: brain monoamines and their metabolites; experiment: Inhibition of MAO in vivo: brain monoamines and their metabolites (HPLC); design: species or system male Sprague-Dawley rats; conditions: for DOPAC, brain / HVA, brain / 5HIAA, brain / NE, brain / 5-HT, brain / DA (dopamine), brain: 18 h, ± S.E.M.; for DOPAC, brain: control 80 ± 3; for HVA, brain: control 81 ± 3; for 5HIAA, brain: control 347 ± 8; for NE, brain: control 369 ± 18; for 5-HT, brain: control 1156 ± 52; for DA (dopamine), brain: control 840 ± 27
Protocol: (§3) The ability of a compound of Formula I to inhibit MAO can be determined in vivo using brain and heart samples obtained from the ex vivo study reported in Example 9. Monoamines and their deaminated metabolites were determined by HPLC with electrochemical detection by the method of J. Wagner et al, J. Neurochem. 38 1241-1254.
(§4) When (Z)-2-(2',4'-dichlorophenoxy)methyl-3-fluoroallylamine is tested according to the above-described procedure, the results given in Tables IV and V are obtained. In these tables the following abbreviations are used: […]

MAO-B = experiment: Inhibition of MAO ex vivo, phenethylamine as substrate (MAO-B); type: in vivo, male Sprague-Dawley rats; conditions: for % Inhibition, Brain (2) / % Inhibition, Duodenum (2) / % Inhibition, Heart (2) / % Inhibition, Liver (2): 18 h, 14C phenethylamine
Protocol: as §1, §2

[3] = test system: heart monoamines and their metabolites; experiment: Inhibition of MAO in vivo: heart monoamines and their metabolites (HPLC); design: species or system male Sprague-Dawley rats; NE, Table V (heart) / DOPAC, Table V (heart) / 5HT, Table V (heart) / 5HIAA, Table V (heart): unit not given beside the values; conditions: for 5HIAA, Table V (heart) / DOPAC, Table V (heart) / NE, Table V (heart) / HVA, Table V (heart) / 5HT, Table V (heart): 18 h; for 5HIAA, Table V (heart): control 7 ± 1; for DOPAC, Table V (heart): control 78 ± 22; for NE, Table V (heart): control 735 ± 100; for HVA, Table V (heart): control 38 ± 9; for 5HT, Table V (heart): control 808 ± 50
Protocol: as §3, §4

## NC/C(=C/F)COc1ccc(Cl)cc1Cl [(z)-2-(2',4'-dichlorophenoxy)methyl-3-fluoroallylamine]
[1]; 10 mg/kg by mouth, in words
  Potentiation of heart rate response to p-tyramine: none
[1]; 10 mg/kg p.o. 18 h prior to testing
  cardiovascular responses to tyramine injected intravenously, in words: affected to only a small extent
[1]; 25 mg/kg by mouth
  Potentiation of heart rate response to p-tyramine: 2.8 fold
[1]; 25 mg/kg, two experiments
  potentiation of tyramine: 2-3 fold
MAO; 1 mg/kg po
  % Inhibition, Brain (1): 41%
  % Inhibition, Duodenum (1): 10%
  % Inhibition, Heart (1): 27%
  % Inhibition, Liver (1): 0%
MAO; 2.5 mg/kg po
  % Inhibition, Brain (1): 23%
  % Inhibition, Duodenum (1): 26%
  % Inhibition, Heart (1): 0%
  % Inhibition, Liver (1): 9%
MAO; 5 mg/kg po
  % Inhibition, Brain (1): 34%
  % Inhibition, Duodenum (1): 55%
  % Inhibition, Heart (1): 0%
  % Inhibition, Liver (1): 21%
MAO; 10 mg/kg po
  % Inhibition, Brain (1): 55%
  % Inhibition, Duodenum (1): 57%
  % Inhibition, Heart (1): 0%
  % Inhibition, Liver (1): 25%
MAO; 25 mg/kg po
  % Inhibition, Brain (1): 73%
  % Inhibition, Duodenum (1): 65%
  % Inhibition, Heart (1): 32%
  % Inhibition, Liver (1): 55%
[2]; 1 mg/kg p.o.
  DOPAC, brain: 75 ± 11 ng/g
  HVA, brain: 94 ± 15 ng/g
  5HIAA, brain: 371 ± 19 ng/g
  NE, brain: 386 ± 18 ng/g
  5-HT, brain: 1218 ± 66 ng/g
[2]; 1 mg/kg p.o., p <0.05
  DA (dopamine), brain: 945 ± 35 ng/g
[2]; 2.5 mg/kg p.o.
  DOPAC, brain: 70 ± 6 ng/g
  HVA, brain: 75 ± 7 ng/g
  5HIAA, brain: 337 ± 15 ng/g
  NE, brain: 409 ± 4 ng/g
  DA (dopamine), brain: 896 ± 31 ng/g
  5-HT, brain: 1119 ± 64 ng/g
[2]; 5 mg/kg p.o.
  HVA, brain: 83 ± 7.2 ng/g
  NE, brain: 415 ± 18 ng/g
  5-HT, brain: 1340 ± 116 ng/g
[2]; 5 mg/kg p.o., p <0.01
  DOPAC, brain: 65 ± 3 ng/g
[2]; 5 mg/kg p.o., p <0.02
  DA (dopamine), brain: 943 ± 21 ng/g
[2]; 5 mg/kg p.o., p <0.05
  5HIAA, brain: 379 ± 10 ng/g
[2]; 10 mg/kg p.o.
  5HIAA, brain: 343 ± 14 ng/g
  DA (dopamine), brain: 875 ± 16 ng/g
  5-HT, brain: 1297 ± 100 ng/g
[2]; 10 mg/kg p.o., p <0.02
  HVA, brain: 53 ± 10 ng/g
  NE, brain: 439 ± 15 ng/g
[2]; 25 mg/kg dose
  5-HT, in words: Significant increases
[2]; 25 mg/kg p.o.
  HVA, brain: 75 ± 8 ng/g
[2]; 25 mg/kg p.o., p <0.001
  NE, brain: 496 ± 12 ng/g
  DA (dopamine), brain: 1087 ± 29 ng/g
  5-HT, brain: 1623 ± 48 ng/g
[2]; 25 mg/kg p.o., p <0.005
  5HIAA, brain: 404 ± 12 ng/g
[2]; 25 mg/kg p.o., p <0.01
  DOPAC, brain: 54 ± 6 ng/g
[2]; 10 and 25 mg/kg dose
  Norepinephrine (NE) concentrations, in words: increased significantly
[2]; following the 5 mg/kg dose
  dihydroxyphenylacetic acid in the brain, in words: significant reductions
  dopamine in the brain, in words: increases in dopamine
[2]; lower doses (MAO-B) and higher doses (MAO-A)
  selectivity of action, in words: selectivity of action against MAO-B at the lower doses and a small degree of MAO-A inhibition occurring at the higher doses
MAO-B; 1 mg/kg po
  % Inhibition, Brain (2): 85%
  % Inhibition, Duodenum (2): 73%
  % Inhibition, Heart (2): 40%
  % Inhibition, Liver (2): 57%
MAO-B; 2.5 mg/kg po
  % Inhibition, Brain (2): 90%
  % Inhibition, Duodenum (2): 82%
  % Inhibition, Heart (2): 31%
  % Inhibition, Liver (2): 67%
MAO-B; 5 mg/kg po
  % Inhibition, Brain (2): 93%
  % Inhibition, Duodenum (2): 95%
  % Inhibition, Heart (2): 40%
  % Inhibition, Liver (2): 89%
MAO-B; 10 mg/kg po
  % Inhibition, Brain (2): 96%
  % Inhibition, Duodenum (2): 96%
  % Inhibition, Heart (2): 40%
  % Inhibition, Liver (2): 90%
MAO-B; 25 mg/kg po
  % Inhibition, Brain (2): 98%
  % Inhibition, Duodenum (2): 98%
  % Inhibition, Heart (2): 64%
  % Inhibition, Liver (2): 95%
MAO-B; at the dose levels tested (1-25 mg/kg po)
  preferential inhibition of MAO-B in the four tissues: preferential inhibition of MAO-B
MAO-B; doses as low as 1 mg/kg p.o.
  inhibition of brain MAO-B: greater than 80%
[3]; 1 mg/kg p.o.
  5HIAA, Table V (heart): 16 ± 4
  DOPAC, Table V (heart): 56 ± 11
  NE, Table V (heart): 741 ± 56
[3]; 1 mg/kg p.o., p <0.02
  HVA, Table V (heart): 71 ± 6
[3]; 1 mg/kg p.o., spread ± 79
  5HT, Table V (heart): 1017
[3]; 2.5 mg/kg p.o.
  5HIAA, Table V (heart): 7 ± 1
  HVA, Table V (heart): 53 ± 8
  DOPAC, Table V (heart): 46 ± 12
  NE, Table V (heart): 762 ± 20
[3]; 2.5 mg/kg p.o., spread ± 108
  5HT, Table V (heart): 995
[3]; 5 mg/kg p.o.
  5HIAA, Table V (heart): 20 ± 6
  HVA, Table V (heart): 60 ± 16
  DOPAC, Table V (heart): 56 ± 7
  NE, Table V (heart): 875 ± 53
[3]; 5 mg/kg p.o., spread ± 154
  5HT, Table V (heart): 1018
[3]; 10 mg/kg p.o.
  5HIAA, Table V (heart): 14 ± 2
  HVA, Table V (heart): 55 ± 3
  DOPAC, Table V (heart): 62 ± 5
  NE, Table V (heart): 729 ± 58
[3]; 10 mg/kg p.o., spread ± 82
  5HT, Table V (heart): 850
[3]; 25 mg/kg p.o.
  DOPAC, Table V (heart): 87 ± 27
  NE, Table V (heart): 765 ± 50
[3]; 25 mg/kg p.o., p <0.02
  5HIAA, Table V (heart): 26 ± 4
  HVA, Table V (heart): 65 ± 4
[3]; 25 mg/kg p.o., spread ± 113
  5HT, Table V (heart): 685
[3]; 1-25 mg/kg p.o.
  monoamines or their metabolites in the heart, in words: no consistent changes
